Series [1] can be described thus: Plasma concentration of d5OT by LC-MS/MS after IN or IV d5OT. The format is in vivo, rhesus macaques (Macaca mulatta). The conditions noted are these: for level at 1 h: rhesus monkey, plasma, 60 min, present study. How it is done: (§1) The six monkeys were dosed once a week, for 4 consecutive weeks, with each DOSE–ROUTE condition of d5OT (40 IU IN, 40 IU IV, 80 IU IN, or 80 IU IV). Each DOSE–ROUTE condition was assigned using a Latin square randomization (Table 4). Sessions were separated by at least 6 days. During each session, CSF (750 µl) and blood (5 ml) samples were drawn immediately prior to (T = 0) and following (T = 60 and 120 min) each administration of d5OT.
Monkeys were divided into three groups, each with two monkeys; each group received the following in a terminal study at the 5th week: Group 1 (Monkeys ID# 1 and ID# 5) received 40 IU of d5OT IN, Group 2 received 80 IU of d5OT IN (Monkeys ID# 2 and ID# 4) and Group 3 received 80 IU of d5OT IV (Monkeys ID# 3 and ID# 6). Animals were perfused on average, 140 ± 7 (mean ± SD) min after d5OT administration (range = 135–149 min) (Table 4). Plasma and CSF were drawn just before administration of d5OT, at the midpoint between d5OT administration and perfusion (~60 min post-d5OT administration), and just before perfusion.
Chemicals: An unlabeled standard for d0OT and deuterated standard for d5OT were purchased from Sigma-Aldrich (St. Louis, MO); d10OT was purchased for use as an internal standard through a custom order from Cayman Chemical (Ann Arbor, MI). All other reagents were commercially available, and we purchased LC or MS grade chemicals when available. Plasma and CSF sample preparation for LC–MS/MS analysis. CSF and plasma samples were collected as described above. […]
(§2) Solid-phase extraction (SPE) columns (Strata-X-Drug B, 60 mg/6 ml, Phenomenex, Torrance, CA) were conditioned prior to use by adding 2 ml of methanol, followed by 2 ml of water, and 2 ml of 0.2 M ammonium acetate (pH 3.0) in water; each was allowed to flow through by gravity before the next was added. […] After a 15 min incubation at 4 °C, plates were filtered into microtiter plates (Shimadzu, Kyoto, Japan) using a positive pressure manifold (8 min at 5 psi, followed by 15 s at 15 psi; Biotage, Uppsala, Sweden), and analyzed. […]

For series [2] the following is noted: LOQ 10 pg/ml, cited from earlier work. Here is the method:
Further, at 60 min in the previous study, the CSF concentrations of d5OT after IN delivery of 80 IU were highly variable (11, 16, 67, and 221 pg/ml), and would have been detectable in only two of the monkeys using the a ... || page 8: 4. It is surprising that no CSF d5 OT was detected at 60 or 120 minutes in CSF after IN administration. […] In our previous study (Lee et al., Mol Psychiatry 2018), after IN administration, CSF d5OT concentration at 60 minutes was quantified in 4 monkeys as follows: 11.28, 15.99, 67.65 and 221.62 pg/ml. In this previous study, the limit of quantification (LOQ) for d5OT was 10 pg/ml. The LOQ of d5OT in the present study was 100 pg/ml and the method dete ...

The nature of series [3]: Plasma concentration of endogenous d0OT by LC-MS/MS. The format is in vivo, rhesus macaques (Macaca mulatta). The conditions noted are these: LLOQ 10 pg/ml, MDL 4 pg/ml. How it is done:
as §1
Chemicals: An unlabeled standard for d0OT and deuterated standard for d5OT were purchased from Sigma-Aldrich (St. Louis, MO); d10OT was purchased for use as an internal standard through a custom order from Cayman Chemical (Ann Arbor, MI). All other reagents were commercially available, and we purchased LC or MS grade chemicals when available. Plasma and CSF sample preparation for LC–MS/MS analysis. […]
as §2

The conditions of series [4]: nonhuman primate, cited from earlier work. How it is done:
[…] For IV administration, 1 ml was administered via a peripheral IV catheter. For IN administration, an IN Mucosal Atomization Device [MAD, Teleflex Medical, Research Triangle Park, NC] was used. This same device was used in our previous nonhuman primate study. […] Of not ...

Where “and” joins values, the source holds several entries; their conditions need not be identical. Identical values can stand only once. Like-named read-outs stand apart in the source and are kept apart here.

We go through 2 compounds from PMC7270110, “Labeled oxytocin administered via the intranasal route reaches the brain in rhesus macaques” (Nature Communications, 2020).

With `CC[C@H](C)[C@@H]1NC(=O)[C@H](Cc2ccc(O)cc2)NC(=O)[C@@H](N)CSSC[C@@H](C(=O)N2CCC[C@H]2C(=O)N[C@@H](CC(C)C)C(=O)NCC(N)=O)NC(=O)[C@H](CC(N)=O)NC(=O)[C@H](CCC(N)=O)NC1=O` [d5OT], the “Concentrations of d5OT in the plasma” value in series [1] (after 40 IU IN, all concentrations, LOQ 100 pg/ml) is given as “below the level of quantification”. Moreover, the level at 1 h in series [1] (80 IU IN condition, read-out: Plasma d5OT) was determined as 0.284 ± 0.288 ng/mL; in series [1] (IV condition, read-out: Mean plasma concentration of d5OT), 1.99 ± 0.476 ng/mL. Moreover, the “CSF concentrations of d5OT” value in series [2] (60 min after IN delivery of 80 IU, individual monkeys, previous study) is 11 pg/mL and 16 pg/mL and 67 pg/mL and 221 pg/mL. Also, the “CSF d5OT concentration” value in series [2] (60 minutes after IN administration, 4 individual monkeys, ref Lee et al., Mol Psychiatry 2018) is 11.28 pg/mL and 15.99 pg/mL and 67.65 pg/mL and 221.62 pg/mL.

In the case of `CC[C@H](C)[C@@H]1NC(=O)[C@H](Cc2ccc(O)cc2)NC(=O)[C@@H](N)CSSC[C@@H](C(=O)N2CCC[C@H]2C(=O)N[C@@H](CC(C)C)C(=O)NCC(N)=O)NC(=O)[C@H](CC(N)=O)NC(=O)[C@H](CCC(N)=O)NC1=O` [OT, oxytocin], the d0OT in plasma result in series [3] is “not detected”. In addition, the “Concentration of CSF OT” value in series [4] (IN administration of unlabeled OT with a different IN device) is on record as “no increased concentration”. For the same compound, the “CSF OT concentrations” value in series [4] (OT 48 IU, MAD spray and nebulizer) is recorded as “significant elevations”.
